The source of these data is patent publication US10654847B2, “Substituted 2-(4-heterocyclylbenzyl)isoindolin-1-one analogs as positive allosteric modulators of the muscarinic acetylcholine receptor M1” (Vanderbilt University, priority 2011, dated 2020).

This experiment deals with T1, mAChR M1 (UniProt P11229).
T1 sequence (P11229 1-460): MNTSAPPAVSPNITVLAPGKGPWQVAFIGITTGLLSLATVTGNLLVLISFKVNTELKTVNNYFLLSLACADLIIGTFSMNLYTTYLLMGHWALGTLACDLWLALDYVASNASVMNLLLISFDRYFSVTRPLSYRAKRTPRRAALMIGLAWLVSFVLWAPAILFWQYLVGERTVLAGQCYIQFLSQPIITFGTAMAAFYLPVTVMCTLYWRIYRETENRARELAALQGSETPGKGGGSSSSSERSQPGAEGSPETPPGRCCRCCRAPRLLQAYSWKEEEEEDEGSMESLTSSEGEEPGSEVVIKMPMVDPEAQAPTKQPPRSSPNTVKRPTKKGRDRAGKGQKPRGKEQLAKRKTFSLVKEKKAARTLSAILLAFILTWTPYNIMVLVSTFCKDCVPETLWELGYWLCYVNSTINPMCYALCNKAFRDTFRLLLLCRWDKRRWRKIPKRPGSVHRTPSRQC
Kind of experiment: mAChR M1 cell-based functional assay (calcium mobilization, potentiation of EC20 acetylcholine response). Conditions: for Emax (%): % ACh maximum at 30 μM, mAChR M1-expressing CHO-K1 cells, calcium flux; for pEC50 / EC50: positive allosteric modulation of EC20 ACh response, mAChR M1 CHO-K1 cells; for pEC50: <5 estimated where no plateau; for EC50: >10 μM estimated where no plateau, read-out: EC50. The method, then: Chinese hamster ovary (CHO-K1) cells stably expressing rat (r)M1 were purchased from the American Type Culture Collection and cultured according to their indicated protocol. […] To make stable rM2, hM2, rM3, hM4, and rM4 cell lines for use in calcium mobilization assays, these cells also were stably transfected with a chimeric G-protein (Gqi5) (provided by B. R. Conklin, University of California, San Francisco) using Lipofectamine 2000. rM1, hM1, rM3, hM3, rM5, and hM5 cells were grown in Ham's F-12 medium containing 10% heat-inactivated fetal bovine serum (FBS), 20 mM HEPES, and 50 μg/mL G418 sulfate. rM2-Gqi5, hM2-Gqi5, and hM4-Gqi5 cells were grown in the same medium also containing 500 μg/mL Hygromycin B. Stable rM4-Gqi5 cells were grown in DMEM containing 10% heat-inactivated FBS, 20 mM HEPES, 400 μg/mL G418 sulfate, and 500 μg/mL Hygromycin B.
For high throughput measurement of agonist-evoked increases in intracellular calcium, CHO-K1 cells stably expressing muscarinic receptors were plated in growth medium lacking G418 and hygromycin at 15,000 cells/20 μL/well in Greiner 384-well black-walled, tissue culture (TC)-treated, clear-bottom plates (VWR). Cells were incubated overnight at 37° C. and 5% CO2. […] Compound master plates were formatted in an 11 point CRC format (1:3 dilutions) in 100% DMSO with a starting concentration of 10 mM using the BRAVO liquid handler (Agilent). Test compound CRCs were then transferred to daughter plates (240 nL) using the Echo acoustic plate reformatter (Labcyte, Sunnyvale, Calif.) and then diluted into assay buffer (40 μL) to a 2× stock using a Thermo Fisher Combi (Thermo Fisher Scientific, Waltham, Mass.).
Calcium flux was measured using the Functional Drug Screening System (FDSS) 6000 (Hamamatsu Corporation, Tokyo, Japan) as an increase in the fluorescent static ratio. Compounds were applied to cells (20 μL, 2×) using the automated system of the FDSS 6000 at 4 s into the 300 s protocol and the data were collected at 1 Hz. […] Agonist activity was analyzed as a concentration-dependent increase in calcium mobilization upon compound addition. Positive allosteric modulator activity was analyzed as a concentration-dependent increase in the EC20 acetylcholine response. Antagonist activity was analyzed as a concentration-dependent decrease in the EC80 acetylcholine response. Concentration-response curves were generated using a four-parameter logistical equation in XLfit curve fitting software (IDBS, Bridgewater, N.J.) for Excel (Microsoft, Redmond, Wash.) or Prism (GraphPad Software, Inc., San Diego, Calif.).
The above described assay was also operated in a second mode where an appropriate fixed concentration of the present compounds were added to the cells after establishment of a fluorescence baseline for about 3 seconds, and the response in cells was measured. […] Data were reduced as described above and the EC50 values for the agonist in the presence of test compound were determined by nonlinear curve fitting. A decrease in the EC50 value of the agonist with increasing concentrations of the present compounds (a leftward shift of the agonist concentration-response curve) is an indication of the degree of muscarinic positive allosteric modulation at a given concentration of the present compound. An increase in the EC50 value of the agonist with increasing concentrations of the present compounds (a rightward shift of the agonist concentration response curve) is an indication of the degree of muscarinic antagonism at a given concentration of the present compound. The second mode also indicates whether the present compounds also affect the maximum response of the muscarinic receptor to agonists.
The calcium mobilization assay was also used to determine “efficacy”.

One may read the pEC50 as −log10 of the EC50, conventionally taken in molar units. The term EC50 denotes the concentration giving half of the maximal effect. Take `O=C1c2ncccc2CN1Cc1ccc(-c2ccncc2)cc1F` [Example B65]: the “Emax (%)” value is reported as 56%, the pEC50 is below 5.00 and the EC50 is above 10000 nM.

In the case of `Cn1ncc2cc(-c3ccc(CN4Cc5cccnc5C4=O)c(F)c3)ccc21` [Example B61], the “Emax (%)” value is given as 38%, the pEC50 is listed as below 5.00 and the EC50 was above 10000 nM.

Consider `Cn1cc(-c2ccc(CN3Cc4ncccc4C3=O)c(F)c2)cn1` [Example B9], for which the “Emax (%)” value stood at 83%, the pEC50 is given as 5.55 and the concentration for a half-maximal effect (EC50) is 2800 nM.

On to `Cn1cnc2ccc(-c3ccc(CN4Cc5ncccc5C4=O)c(F)c3)cc21` [Example B54], for which the “Emax (%)” value is 81%, the pEC50 is on record as 6.13 and the EC50 is 741 nM.

Turning to `O=C1c2ncccc2CN1Cc1ccc(-c2cccc3ncccc23)cc1F` [Example B77], the “Emax (%)” value is 42%, the pEC50 is 5.74 and the EC50 was 1820 nM.

For `O=C1c2cccnc2CN1Cc1ccc(-c2ccc3cn[nH]c3c2)cc1F` [Example B40], the “Emax (%)” value is given as 70%, the pEC50 is 6.13 and the EC50 is 741 nM.

As to `Cn1cc2c(-c3cc(F)c(CN4Cc5ncccc5C4=O)c(F)c3)cccc2n1` [Example B81], the “Emax (%)” value was determined as 80%, the pEC50 was 6.80 and the concentration for a half-maximal effect (EC50) is 158 nM.

`Cn1cc(-c2ccc(CN3Cc4ccccc4C3=O)nc2)cn1` [Example B15]: the “Emax (%)” value is given as 37%, the pEC50 is recorded as below 5.00 and the EC50 is above 10000 nM.

With `O=S1(=O)c2ccccc2CN1Cc1ccc(-c2coc(-c3ccccc3)n2)cc1` [Example B120], the “Emax (%)” value is below 30%, the pEC50 is below 5.00 and the EC50 was above 10000 nM.

On to `Cn1cc2cc(-c3ccc(CN4Cc5ncccc5C4=O)cc3)ccc2n1` [Example B59], for which the “Emax (%)” value came out at 56%, the pEC50 is 6.30 and the EC50 is 501 nM.

In the case of `CN1CCc2cc(-c3cc(F)c(CN4Cc5ncccc5C4=O)c(F)c3)ccc21` [Example B103], the “Emax (%)” value is 56%, the negative logarithm of the EC50 (pEC50) is 5.83 and the EC50 was 1480 nM.

`Cn1ccc2cc(-c3ccc(CN4Cc5ncccc5C4=O)c(F)c3)ccc21` [Example B127]: the “Emax (%)” value is listed as below 30%, the pEC50 was below 5.00 and the EC50 is above 10000 nM.

Take `Cn1cc(-c2ccc(CN3Cc4cc(F)cc(F)c4C3=O)c(F)c2)cn1` [Example B7]: the “Emax (%)” value is 63%, the pEC50 was 5.59 and the EC50 was 2600 nM.

With `Cn1cc2cc(-c3ccc(CN4Cc5ccccc5S4(=O)=O)c(F)c3)ccc2n1` [Example B5], the “Emax (%)” value came to 34%, the pEC50 is listed as 5.60 and the EC50 is 2500 nM.

`Cn1cc2cc(-c3cc(F)c(CN4Cc5ncccc5C4=O)cc3F)ccc2n1` [Example B105]: the “Emax (%)” value is on record as 69%, the pEC50 is on record as 6.39 and the EC50 is 407 nM.

On to `O=C1c2ccccc2CN1Cc1ccc(-n2ccnc2)cc1F` [Example B22], for which the “Emax (%)” value was found to be 51%, the pEC50 is below 5.00 and the EC50 was above 10000 nM.

Turning to `O=C1c2ncccc2CN1Cc1ccc(-c2ccc3cnccc3c2)cc1F` [Example B79], the “Emax (%)” value was found to be 62%, the pEC50 is 5.83 and the EC50 is 1480 nM.

With `O=C1c2cccnc2CN1Cc1ccc(-c2ccnc3ccccc23)cc1F` [Example B45], the “Emax (%)” value was 44%, the pEC50 is recorded as 5.43 and the EC50 was 3720 nM.

As to `Cc1cc(-c2ccc(CN3Cc4ncccc4C3=O)c(F)c2)cnc1F` [Example B34], the “Emax (%)” value came out at 37%, the pEC50 was 5.60 and the EC50 was 2510 nM.

On to `O=C1c2cccnc2CN1Cc1c(F)cc(-c2ccc3ncccc3c2)cc1F` [Example B96], for which the “Emax (%)” value is 54%, the pEC50 is 6.56 and the concentration for a half-maximal effect (EC50) was 275 nM.

Take `O=C1c2cccnc2CN1Cc1ccc(-c2ccc(Cl)nc2)cc1F` [Example B30]: the “Emax (%)” value is given as 40%, the pEC50 is 5.46 and the EC50 is 3470 nM.

In the case of `Cc1cc(-c2ccc(CN3Cc4ncccc4C3=O)c(F)c2)cnc1Cl` [Example B46], the “Emax (%)” value is 33%, the pEC50 is 5.99 and the 50% effective concentration (EC50) was 1020 nM.

`Cn1cc2c(-c3ccc(CN4Cc5ncccc5C4=O)c(F)c3)cccc2n1` [Example B32]: the “Emax (%)” value is given as 74%, the pEC50 was 6.07 and the EC50 is 851 nM.

With `COc1ccc(-c2ccc(CN3Cc4cccnc4C3=O)c(Cl)c2)cc1` [Example B76], the “Emax (%)” value was 35%, the pEC50 is listed as 5.83 and the EC50 is 1480 nM.

For the compound `Cn1ccc2ccc(-c3ccc(CN4Cc5ccccc5C4=O)c(F)c3)cc21` [Example B10], the “Emax (%)” value came out at 62%, the pEC50 is reported as 5.51 and the EC50 is 3100 nM.

For `O=C1c2cccnc2CN1Cc1ccc(-c2cn3ccnc3cn2)cc1F` [Example B90], the “Emax (%)” value came to 53%, the pEC50 is given as below 5.00 and the EC50 is above 10000 nM.

Regarding `Cc1nc(-c2ccc(CN3Cc4ccccc4S3(=O)=O)cc2)no1` [Example B119], the “Emax (%)” value is below 30%, the pEC50 is recorded as below 5.00 and the EC50 is above 10000 nM.

With `O=C1c2cccnc2CN1Cc1ccc(-c2cccnc2)cc1F` [Example B47], the “Emax (%)” value was found to be 54%, the pEC50 is listed as 5.22 and the EC50 was 6030 nM.

On to `O=C1c2cccnc2CN1Cc1ccc(-c2ccc3nccn3c2)cc1F` [Example B57], for which the “Emax (%)” value is recorded as 69%, the pEC50 is listed as 5.68 and the EC50 was 2090 nM.

As to `O=C1c2ncccc2CN1Cc1ccc(-c2cccnc2)cc1Cl` [Example B67], the “Emax (%)” value was determined as 56%, the pEC50 is 5.28 and the EC50 was 5250 nM.

For `Cn1ncc2cc(-c3ccc(CN4Cc5ncccc5C4=O)c(F)c3)ccc21` [Example B27], the “Emax (%)” value was determined as 58%, the pEC50 is reported as 6.1 and the EC50 was 794 nM.

In the case of `O=C1c2ccccc2CN1Cc1ccc(-c2ccc3cc[nH]c3c2)cc1F` [Example B121], the “Emax (%)” value was below 30%, the pEC50 is reported as below 5.00 and the EC50 is above 10000 nM.

As to `O=S1(=O)c2ccccc2CN1Cc1ccc(-n2cccc2)cc1` [Example B125], the “Emax (%)” value is on record as below 30%, the pEC50 was below 5.00 and the EC50 is above 10000 nM.
